One experiment has as its system MRSA. Put plainly: In vitro activity (MIC) against MRSA strains collected in 2005. The experiment is classed as cell-based, Staphylococcus aureus. Conditions: for % resistance / % susceptible: CLSI (2007) criteria.
The test system of experiment [1] is susceptible Staphylococcus aureus (MSSA). Put plainly: In vitro activity (MIC) against susceptible Staphylococcus aureus (MSSA) strains collected in 2005. It is filed as cell-based. Conditions: for % resistance / % susceptible: CLSI (2007) criteria.
The next experiment has as its system C. difficle. Put plainly: In vitro activity (MIC) against 25 clinical strains of C. difficile. It is filed as cell-based. Conditions: for MIC50 / MIC90: Clostridioides difficile.
[2] abbreviates: North America 2005, 1,158 strains.
[3] abbreviates: North America and Europe 2005, 1,644 strains.
[4] abbreviates: Staphylococcus aureus, MRSA, North America 2005, 1,158 strains, read-out: MIC90.
Setting [5] is: Staphylococcus aureus, MRSA, North America and Europe 2005, 1,644 strains, read-out: MIC50.
The mark [6] stands for this setting: Staphylococcus aureus, MRSA, North America and Europe 2005, 1,644 strains, read-out: MIC90.
Setting [7] is: North America 2005, 1,232 strains.
[8] abbreviates: North America and Europe 2005, 2,276 strains.
Setting [9] is: Staphylococcus aureus, MSSA, North America and Europe 2005, 2,276 strains, read-out: MIC50.
Setting [10] is: Staphylococcus aureus, MSSA, North America and Europe 2005, 2,276 strains, read-out: MIC90.

The source of these data is patent US20090148512A1, “NOVEL USES OF CHLORAMPHENICOL AND ANALOGOUS THEREOF” (LANNETT CO INC, priority 2007, published 2009).

Converted amounts (≈) assume the structure as drawn. Read-outs that look alike come from different tables or passages of the source.

Broadly, the MIC50 is an inhibitory concentration at the 50% level, which refers to growth in some studies and to a panel of isolates in others. A word on the MIC90: it is the lowest concentration that inhibits either 90% of growth or 90% of the strains tested, depending on the study. For the compound `CCC[C@@H]1C[C@@H](C(=O)N[C@@H]([C@H]2O[C@H](SC)[C@H](O)[C@@H](O)[C@H]2O)[C@H](C)Cl)N(C)C1` [Clindamycin], the MIC50 entry with MRSA (setting [2]) was “≦0.25 μg/ml”; in the experiment with MRSA (setting [5]), no more than 0.25 µg/mL; in experiment [1] (Europe 2005, 1,044 strains), “≦0.25 μg/ml”; in experiment [1] (setting [7]), “≦0.25 μg/ml”; in experiment [1] (setting [9]) it was no more than 0.25 µg/mL. Also, the “% resistance” value with MRSA (setting [2]) was 44.3%; in the experiment on MRSA (setting [3]) it was 45.3%; in experiment [1] (Europe 2005, 1,044 strains), 3.2%; in experiment [1] (setting [7]) it was 4.8%; in experiment [1] (setting [8]) it was 4.0%. Also, the “% susceptible” value with MRSA (setting [2]) worked out at 55.5%; in the experiment with MRSA (setting [3]), 54.6%; in experiment [1] (Europe 2005, 1,044 strains) it was 96.6%; in experiment [1] (setting [7]), 95.0%; in experiment [1] (setting [8]), 95.7%. Further, the MIC90 in the experiment on MRSA (setting [4]) was greater than 2 µg/mL; with MRSA (setting [6]), greater than 2 µg/mL; in experiment [1] (Europe 2005, 1,044 strains) it was “≦0.25 μg/ml”; in experiment [1] (setting [7]) it was “≦0.25 μg/ml”; in experiment [1] (setting [10]), no more than 0.25 µg/mL.
Take `CC[C@H]1OC(=O)[C@H](C)[C@@H](O[C@H]2C[C@@](C)(OC)[C@@H](O)[C@H](C)O2)[C@H](C)[C@@H](O[C@@H]2O[C@H](C)C[C@H](N(C)C)[C@H]2O)[C@](C)(O)C[C@@H](C)C(=O)[C@H](C)[C@@H](O)[C@]1(C)O` [Erythromycin]: the MIC50 against MRSA (setting [2]) and in the experiment with MRSA (setting [5]) was greater than 8 µg/mL in each case. In addition, the “% resistance” value in the experiment on MRSA (setting [2]) came out at 94.8%; in the experiment on MRSA (setting [3]) it was 89.2%; in experiment [1] (Europe 2005, 1,044 strains) it was 13.3%; in experiment [1] (setting [7]), 28.0%; in experiment [1] (setting [8]), 21.3%. Besides, the “% susceptible” value in the experiment on MRSA (setting [2]) amounted to 4.8%; in the experiment with MRSA (setting [3]), 10.2%; in experiment [1] (Europe 2005, 1,044 strains), 86.2%; in experiment [1] (setting [7]), 70.8%; in experiment [1] (setting [8]) it was 77.9%. In addition, the MIC90 in the experiment on MRSA (setting [4]) was greater than 8 µg/mL; with MRSA (setting [6]), greater than 8 µg/mL; in experiment [1] (Europe 2005, 1,044 strains), greater than 8 µg/mL; in experiment [1] (setting [7]), greater than 8 µg/mL; in experiment [1] (setting [10]), greater than 8 µg/mL.
Take `C[C@H]1COc2c(N3CCN(C)CC3)c(F)cc3c(=O)c(C(=O)O)cn1c23` [Levofloxacin]: the MIC50 in the experiment with MRSA (setting [2]) is greater than 4 µg/mL; with MRSA (setting [5]), greater than 4 µg/mL; in experiment [1] (Europe 2005, 1,044 strains), “≦0.5 μg/ml”; in experiment [1] (setting [7]) it was “≦0.5 μg/ml”; in experiment [1] (setting [9]), no more than 0.5 µg/mL. For the same compound, the “% resistance” value in the experiment on MRSA (setting [2]) is on record as 71.7%; with MRSA (setting [3]) it was 77.4%; in experiment [1] (Europe 2005, 1,044 strains), 6.8%; in experiment [1] (setting [7]) it was 6.6%; in experiment [1] (setting [8]) it was 6.7%. For the same compound, the “% susceptible” value came to 26.4% in the experiment on MRSA (setting [2]); 20.6% with MRSA (setting [3]); 93.0% in experiment [1] (Europe 2005, 1,044 strains); 93.0% in experiment [1] (setting [7]); 93.0% in experiment [1] (setting [8]). Further, the MIC90 in the experiment on MRSA (setting [4]) is greater than 4 µg/mL; in the experiment on MRSA (setting [6]) it was greater than 4 µg/mL; in experiment [1] (Europe 2005, 1,044 strains), “≦0.5 μg/ml”; in experiment [1] (setting [7]) it was “≦0.5 μg/ml”; in experiment [1] (setting [10]), no more than 0.5 µg/mL.
Turning to `Cc1ncc([N+](=O)[O-])n1CCO` [Metronidazole], in the experiment with C. difficle (25 clinical strains), the “% resistant” value was 00% and the “% susceptible” value was determined as 100%. In the experiment with C. difficle, this compound showed an MIC50 of 0.25 µM (≈ 0.0428 µg/mL) and an MIC90 of 0.5 µM (≈ 0.0856 µg/mL).
On to `CN(C)[C@@H]1C(O)=C(C(N)=O)C(=O)[C@@]2(O)C(O)=C3C(=O)c4c(O)cccc4[C@@](C)(O)[C@H]3C[C@@H]12` [Tetracycline], for which the MIC50 result is “≦2 μg/ml” with MRSA (setting [2]); no more than 2 µg/mL in the experiment on MRSA (setting [5]); “≦2 μg/ml” in experiment [1] (Europe 2005, 1,044 strains); “≦2 μg/ml” in experiment [1] (setting [7]); no more than 2 µg/mL in experiment [1] (setting [9]). Also, the “% resistance” value turned out to be 7.0% in the experiment with MRSA (setting [2]); 10.3% in the experiment with MRSA (setting [3]); 6.5% in experiment [1] (Europe 2005, 1,044 strains); 2.7% in experiment [1] (setting [7]); 4.4% in experiment [1] (setting [8]). Besides, the “% susceptible” value stood at 92.5% in the experiment on MRSA (setting [2]); 88.8% with MRSA (setting [3]); 93.3% in experiment [1] (Europe 2005, 1,044 strains); 96.8% in experiment [1] (setting [7]); 95.2% in experiment [1] (setting [8]). Further, the MIC90 was no more than 2 µg/mL with MRSA (setting [4]); greater than 8 µg/mL with MRSA (setting [6]); “≦2 μg/ml” in experiment [1] (Europe 2005, 1,044 strains); “≦2 μg/ml” in experiment [1] (setting [7]); no more than 2 µg/mL in experiment [1] (setting [10]).
`CN[C@H](CC(C)C)C(=O)N[C@H]1C(=O)N[C@@H](CC(N)=O)C(=O)N[C@H]2C(=O)N[C@H]3C(=O)N[C@H](C(=O)N[C@H](C(=O)O)c4cc(O)cc(O)c4-c4cc3ccc4O)[C@H](O)c3ccc(c(Cl)c3)Oc3cc2cc(c3O[C@@H]2O[C@H](CO)[C@@H](O)[C@H](O)[C@H]2O[C@H]2C[C@](C)(N)[C@H](O)[C@H](C)O2)Oc2ccc(cc2Cl)[C@H]1O` [Vancomycin]: the MIC50 against MRSA (setting [2]) was 1 µg/mL (≈ 0.69 µM); with MRSA (setting [5]), 1 µg/mL (≈ 0.69 µM); in experiment [1] (Europe 2005, 1,044 strains) it was 1 µg/mL (≈ 0.69 µM); in experiment [1] (setting [7]), 1 µg/mL (≈ 0.69 µM); in experiment [1] (setting [9]) it was 1 µg/mL (≈ 0.69 µM). The MIC90 was 1 µg/mL (≈ 0.69 µM) in the experiment with MRSA (setting [2]); 1 µg/mL (≈ 0.69 µM) in the experiment on MRSA (setting [6]); 1 µg/mL (≈ 0.69 µM) in experiment [1] (Europe 2005, 1,044 strains); 1 µg/mL (≈ 0.69 µM) in experiment [1] (setting [7]); 1 µg/mL (≈ 0.69 µM) in experiment [1] (setting [10]). Moreover, the “% resistance” value is reported as 0.0% in the experiment on MRSA (setting [2]); 0.0% with MRSA (setting [3]); 0.0% in experiment [1] (Europe 2005, 1,044 strains); 0.0% in experiment [1] (setting [7]); 0.0% in experiment [1] (setting [8]). Further, the “% susceptible” value in the experiment on MRSA (setting [2]) turned out to be 100%; in the experiment with MRSA (setting [3]), 100%; in experiment [1] (Europe 2005, 1,044 strains), 100%; in experiment [1] (setting [7]), 100%; in experiment [1] (setting [8]), 100%. Moreover, the “Range (MIC)” value is given as “≦0.12-2” in experiment [1] (Europe 2005, 1,044 strains); “≦0.25-2” in experiment [1] (setting [7]); “≦0.12-2” in experiment [1] (setting [8]).
For the compound `O=C(N[C@H](CO)[C@H](O)c1ccc([N+](=O)[O-])cc1)C(Cl)Cl` [chloramphenicol, Chloramphenicol], the MIC50 against MRSA (setting [2]) amounted to 8 µg/mL (≈ 24.8 µM); with MRSA (setting [5]), 8 µg/mL (≈ 24.8 µM); in the experiment on C. difficle (25 clinical strains, read-out: MIC50), 4 µM (≈ 1.29 µg/mL); in experiment [1] (Europe 2005, 1,044 strains), 8 µg/mL (≈ 24.8 µM); in experiment [1] (setting [7]) it was 8 µg/mL (≈ 24.8 µM); in experiment [1] (setting [9]) it was 8 µg/mL (≈ 24.8 µM). Further, the “% resistance” value in the experiment on MRSA (setting [2]) amounted to 0.4%; in the experiment on MRSA (setting [3]) it was 1.9%; in experiment [1] (Europe 2005, 1,044 strains), 1.4%; in experiment [1] (setting [7]) it was 0.0%; in experiment [1] (setting [8]) it was 0.7%. The “% susceptible” value in the experiment on MRSA (setting [2]) is 92.3%; with MRSA (setting [3]) it was 91.5%; in the experiment on C. difficle (25 clinical strains), 88.0%; in experiment [1] (Europe 2005, 1,044 strains), 98.4%; in experiment [1] (setting [7]) it was 99.4%; in experiment [1] (setting [8]), 98.9%. Besides, the MIC90 with MRSA (setting [4]) was determined as 8 µg/mL (≈ 24.8 µM); in the experiment on MRSA (setting [6]) it was 8 µg/mL (≈ 24.8 µM); in the experiment with C. difficle (25 clinical strains, read-out: MIC90) it was 16 µM (≈ 5.17 µg/mL); in experiment [1] (Europe 2005, 1,044 strains), 8 µg/mL (≈ 24.8 µM); in experiment [1] (setting [7]) it was 8 µg/mL (≈ 24.8 µM); in experiment [1] (setting [10]), 8 µg/mL (≈ 24.8 µM). Moreover, the “% resistant” value in the experiment with C. difficle (25 clinical strains) is 8.0%.
